Results published in US6083955A, “Arylethenesulfonamide derivatives and drug composition containing the same” (Yamanouchi Pharmaceutical Co., Ltd., priority 1995, dated 2000).
Read-outs that look alike come from different tables or passages of the source.

Key:
human ETA receptor = molecular target: T1, human ETA receptor (Homo sapiens, UniProt P25101); test: Test on Inhibition of Binding of Endothelin (ET-1) to Human ETA Receptor
T1 sequence (P25101 21-427): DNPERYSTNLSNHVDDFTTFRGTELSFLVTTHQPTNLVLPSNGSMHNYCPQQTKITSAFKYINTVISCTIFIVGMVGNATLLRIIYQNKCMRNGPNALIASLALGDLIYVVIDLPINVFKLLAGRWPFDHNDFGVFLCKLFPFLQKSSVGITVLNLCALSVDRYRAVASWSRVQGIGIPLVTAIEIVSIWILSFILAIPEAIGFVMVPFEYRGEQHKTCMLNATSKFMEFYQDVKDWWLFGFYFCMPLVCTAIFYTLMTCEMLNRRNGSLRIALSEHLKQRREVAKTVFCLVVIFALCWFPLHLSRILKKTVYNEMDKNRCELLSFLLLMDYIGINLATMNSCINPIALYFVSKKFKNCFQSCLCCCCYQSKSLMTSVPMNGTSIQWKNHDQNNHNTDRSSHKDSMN
Protocol: (1) Test on Inhibition of Binding of Endothelin (ET-1) to Human ETA Receptor
cDNA of human ETA receptor was obtained from mRNA of human lung by means of an RT-PCR and then transferred into pEF-BOS, a vector for expression, to prepare plasmid. The prepared plasmid was added to a culture of COS-1 cells (cell strain derived from renal cells of African green monkey) with DEAE-dextran and cDNA of human ETA was transfected to COS-1 cells. Then it was incubated for three days in a conventional DMEM (containing 10% of FBS) and the COS-1 cells recovered therefrom were suspended in a hypotonic buffer (10 mM Tris-HCl and 5 mM EDTA; pH 7.4) followed by homogenizing the cells using a Polytron. The suspension in which the cells were homogenized was subjected to an ultracentrifugation (100,000G for 30 minutes at 4° C.), the resulting precipitate (cell membrane fraction) was re-suspended in a Tris buffer (50 mM Tris-HCl and 10 mM MgCl2; pH 7.4) and the suspension was preserved by freezing at -80° C. (protein amount: about 1 mg/ml).
In conducting the experiment of binding the receptor, the frozen cell membrane sample was melted and resuspended in an incubation buffer (50 mM Tris-HCl, 10 mM MgCl2 and 0.01% bovine serum albumin; pH 7.4). The membrane suspension (200 μl) containing 1.25 μg as a membrane protein, 25 μl of an incubation buffer containing a test compound in various concentrations and 25 μl of [^125 I] ET-1 (specific activity: 2,200 Ci/mM; final concentration: […]) were incubated together at 25° C. for three hours and then filtered through a glass fiber filter using a Brandel cell harvester. Measurement of radioactivity on the glass fiber filter was conducted by means of a gamma-counter (counting efficiency: 81%). Nonspecific binding was determined by the use of a test buffer containing 0.1 μM of ET-1. Inhibiting activity of the test compound to [^125 I] ET-1 was calculated as a concentration (IC50) necessary for inhibiting 50% of the specific binding.

[1] = tested on: big ET-1-induced pressor responses; test: Test on Inhibition of Big ET-1-induced Pressor Responses in Pithed Rats; assay type: in vivo, male Wistar rats; settings: Rattus norvegicus, 0.5 h, read-out: DR2
Protocol: (3) Test on Inhibition of Big ET-1-induced Pressor Responses in Pithed Rats
Male Wistar rats (body weight: […]) were anesthetized by sodium pentobarbital (60 mg/kg, i.p.) and a cannula for artificial ventilation was inserted into a trachea. Spinal cord was broken by inserting a rod made of steel thereinto and then the rat was connected to an artificial respirator. A catheter for measuring the systemic arterial blood pressure was inserted into a carotid artery while another catheter for administering big ET-1 was inserted into a femoral vein. After 30 minutes from the oral administration of a test compound at doses of 0.1 to 10 mg/kg, the rat was pithed and then big ET-1 was intravenously administered at doses of 0.1 to 3.2 nmol/kg in a cumulative manner. Activity of the test compound was evaluated by the dose (DR2 value) whereby the dose-response curve of pressor responses by big ET-1 to the right hand direction to an extent of two-fold.

[2] = inhibition of [^125 I] ET-1 specific binding, COS-1 cell membranes expressing human ETA, pH 7.4, 25° C., three hours, read-out: IC50
[3] = oral administration 30 minutes before pithing, dose shifting big ET-1 pressor dose-response curve two-fold to the right

`COc1ccccc1Oc1c(NS(=O)(=O)C=Cc2ccccc2)nc(-c2ccncc2)nc1OC` [Example 27, N-[6-Methoxy-5-(2-methoxyphenoxy)-2-(4-pyridyl)-4-pyrimidinyl]-2-phenylethenesulfonamide] gave an IC50 (human ETA receptor; [2]) of 5.9 nM.

`COc1ccccc1Oc1c(NS(=O)(=O)C=Cc2ccccc2)nc(-c2ncccn2)nc1OCCO` [Example 1, potassium N-[6-(2-hydroxyethoxy)-5-(2-methoxyphenoxy)-2-(2-pyrimidinyl)-4-pyrimidinyl]-2-phenylethenesulfonamidate] was tested, and the IC50 (human ETA receptor; [2]) was 1.6 nM.

`COc1ccccc1Oc1c(NS(=O)(=O)C(C)=Cc2ccccc2)nc(-c2ncccn2)nc1OC` [Example 37, N-[6-Methoxy-5-(2-methoxyphenoxy)-2-(2-pyrimidinyl)-4-pyrimidinyl]-1-methyl-2-phenylethenesulfonamide] showed an IC50 (human ETA receptor; [2]) of 1.6 nM.

For `COc1cc(OC)cc(-c2nc(NS(=O)(=O)C=Cc3ccccc3)c(Oc3ccccc3OC)c(OC)n2)c1` [Example 22, N-[2-(3,5-Dimethoxyphenyl)-6-methoxy-5-(2-methoxyphenoxy)-4-pyrimidinyl]-2-phenylethenesulfonamide], the IC50 (human ETA receptor; [2]) was 9.5 nM.

Molecule `COc1ccccc1Oc1c(NS(=O)(=O)C=Cc2ccccc2Cl)nc(-c2ncccn2)nc1OC` [Example 47, N-[6-Methoxy-5-(2-methoxyphenoxy)-2-(2-pyrimidinyl)-4-pyrimidinyl]-2-(2-chlorophenyl)ethenesulfonamide] has an IC50 (human ETA receptor; [2]) of 3 nM.

`C#CCOc1nc(-c2ncccn2)nc(NS(=O)(=O)C=Cc2ccccc2)c1Oc1ccccc1OC` [Example 13, N-[6-(2-propynyloxy)-5-(2-methoxyphenoxy)-2-(2-pyrimidinyl)-4-pyrimidinyl]-2-phenylethenesulfonamide] was tested, and the IC50 (human ETA receptor; [2]) was 5.5 nM.

In the case of `CCC(=Cc1ccccc1)S(=O)(=O)Nc1nc(-c2ncccn2)nc(OC)c1Oc1ccccc1OC.[K]` [Example 38, Potassium N-[6-methoxy-5-(2-methoxyphenoxy)-2-(2pyrimidinyl)-4-pyrimidinyl]-1-ethyl-2-phenylethenesulfonamidate], the IC50 (human ETA receptor; [2]) is reported as 3.3 nM and the ED (2-fold shift) ([1]; po) is reported as 0.65 mg/kg.

In the case of `COc1ccccc1Oc1c(NS(=O)(=O)C=Cc2cccs2)nc(-c2ncccn2)nc1OC` [Example 42, N-[6-Methoxy-5-(2-methoxyphenoxy)-2-(2-pyrimidinyl)-4-pyrimidinyl]-2-(2-thienyl)ethenesulfonamide], the IC50 (human ETA receptor; [2]) is reported as 1.5 nM and the ED (2-fold shift) [1, 3] is reported as 1.85 mg/kg.

With `COCCOc1nc(-c2ncccn2)nc(NS(=O)(=O)C=Cc2ccccc2)c1Oc1ccccc1OC` [Example 6, N-[6-(2-Methoxyethoxy)-5-(2-methoxyphenoxy)-2-(2-pyrimidinyl)-4-pyrimidinyl]-2-phenylethenesulfonamide] the IC50 (human ETA receptor; [2]) was 4.8 nM.

`COc1ccccc1Oc1c(NS(=O)(=O)c2ccc(C(C)(C)C)cc2)nc(-c2ncccn2)nc1OCCO` [Comparative Compound, Bosentan, reference compound] gave an ED (2-fold shift) [1, 3] of 32 mg/kg.

In the case of `COc1ccccc1Oc1c(NS(=O)(=O)C=Cc2ccc3ccccc3c2)nc(-c2ncccn2)nc1OC` [Example 45, N-[6-Methoxy-5-(2-methoxyphenoxy)-2-(2-pyrimidinyl)-4-pyrimidinyl]-2-(2-naphthyl)ethenesulfonamide], the IC50 (human ETA receptor; [2]) is reported as 4.4 nM.

For `COc1ccccc1Oc1c(NS(=O)(=O)C=Cc2ccccc2)nc(-c2csc(C)n2)nc1OC` [Example 33, N-[6-Methoxy-5-(2-methoxyphenoxy)-2-(2-methyl-4-thiazolyl)-4-pyrimidinyl]-2-phenylethenesulfonamide], the IC50 (human ETA receptor; [2]) was 7.7 nM.

With `COc1ccccc1Oc1c(NS(=O)(=O)C=Cc2ccccc2)nc(-c2ccsc2)nc1OC` [Example 32, N-[6-Methoxy-5-(2-methoxyphenoxy)-2-(3-thienyl)-4-pyrimidinyl]-2-phenylethenesulfonamide] the IC50 (human ETA receptor; [2]) was 5.1 nM.

`COc1ccccc1Oc1c(NS(=O)(=O)C=Cc2ccccc2)nc(-c2ccoc2)nc1OC` [Example 34, N-[6-Methoxy-5-(2-methoxyphenoxy)-2-(3-furyl)-4-pyrimidinyl]-2-phenylethenesulfonamide] gave an IC50 (human ETA receptor; [2]) of 9.7 nM.

`COc1ccccc1Oc1c(NS(=O)(=O)C=Cc2ccccc2)nc(-c2ncccn2)nc1OC` [Example 2, N-[6-methoxy-5-(2-methoxyphenoxy)-2-(2-pyrimidinyl)-4-pyrimidinyl]-2-phenylethenesulfonamide] was tested, and the IC50 (human ETA receptor) was 3.1 nM and the ED (2-fold shift) ([1]; po) was 0.61 mg/kg.

`COc1ccccc1Oc1c(NS(=O)(=O)C=Cc2ccccc2)nc(-c2ncccn2)nc1OCCF` [Example 8, N-[6-(2-fluoroethoxy)-5-(2-methoxyphenoxy)-2-(2-pyrimidinyl)-4-pyrimidinyl]-2-phenylethenesulfonamide] gave an IC50 (human ETA receptor; [2]) of 2.9 nM.

Molecule `COc1ccccc1Oc1c(NS(=O)(=O)C=Cc2ccc(C)cc2)nc(-c2ncccn2)nc1OC` [Example 39, N-[6-Methoxy-5-(2-methoxyphenoxy)-2-(2-pyrimidinyl)-4-pyrimidinyl]-2-(4-methylphenyl)ethenesulfonamide] has an IC50 (human ETA receptor; [2]) of 2.8 nM.
